Biological target: T1, human CCR2B (Homo sapiens, UniProt P41597)
T1 construct: host or cells: CHO-K1 (CHOK1-CCR2B-A5)
T1 sequence (P41597 1-360 isoform P41597-2): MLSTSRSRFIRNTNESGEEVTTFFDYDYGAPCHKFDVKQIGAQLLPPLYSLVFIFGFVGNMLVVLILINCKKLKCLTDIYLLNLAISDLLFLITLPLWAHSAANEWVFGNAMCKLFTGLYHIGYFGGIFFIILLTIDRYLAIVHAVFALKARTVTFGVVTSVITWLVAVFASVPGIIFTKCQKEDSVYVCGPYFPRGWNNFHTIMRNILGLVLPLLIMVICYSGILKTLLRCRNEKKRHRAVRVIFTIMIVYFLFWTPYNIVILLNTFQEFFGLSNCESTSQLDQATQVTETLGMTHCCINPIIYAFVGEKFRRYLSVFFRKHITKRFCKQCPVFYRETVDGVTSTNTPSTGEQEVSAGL
Experiment: Calcium mobilization assay (FLIPR, MCP-1 stimulated CHOK1-CCR2B-A5 cells)
Assay type: cell-based
Details: antagonist activity vs 20 nM MCP-1, CHOK1-CCR2B-A5 cells
Description: Calcium Mobilization Assay
CHOK1-CCR2B-A5 cells (from Euroscreen) stably overexpressing the human chemokine receptor 2 isoform B were cultured in Nutrient Hams F12 medium supplemented with 5% FBS, 100 U/ml penicillin, 100 μg/ml streptomycin, 400 μg/ml G418 and 5 μg/ml puromycin.
For the assay cells were grown overnight in 384-well black clear flat bottom polystyrene plates (Costar) at 37° C. at 5% CO2. After washing with DMEM, 20 mM Hepes, 2.5 mM probenecid, 0.1% BSA (DMEM assay buffer) cells were loaded with 4 μM Fluo-4 in the same DMEM assay buffer for 2 hours at 30° C. Excess dye was removed and cells were washed with DMEM assay buffer. 384-well compound plates were prepared with DMEM assay buffer/0.5% DMSO with or without various concentrations of test compounds. Usually compounds were tested for agonist and antagonist activity.
Test compounds were added to the assay plate and agonist activity was monitored as fluorescence for 80 seconds with a FLIPR (488 nm excitation; 510-570 nm emission; Molecular Devices). After 20-30 min. of incubation at 30° C., 20 nM MCP-1 (R&D; Roche) was added and fluorescence was monitored again for 80 seconds. Increases in intracellular calcium are reported as maximum fluorescence after agonist exposure minus basal fluorescence before exposure. Antagonist activity is indicated as inhibitor concentration required for 50% inhibition of specific calcium increases.

Structure (SMILES) | IC50 [nM]
Cc1cc(-c2cncc(C(F)(F)F)c2)cc(C)c1C(=O)N1CCC(N2CCC(O)CC2)CC1 [Example 24, [2,6-Dimethyl-4-(5-trifluoromethyl-pyridin-3-yl)-phenyl]-(4-hydroxy-[1,4′]bipiperidinyl-1′-yl)-methanone] | 270
Cc1cc(-c2cccc(C(F)(F)F)c2)nc(C)c1C(=O)N1CCC(N2CCCC2)CC1 [Example 27, [2,4-Dimethyl-6-(3-trifluoromethyl-phenyl)-pyridin-3-yl]-(4-pyrrolidin-1-yl-piperidin-1-yl)-methanone] | 21
Cc1nc(-c2cccc(C(F)(F)F)c2)nc(C)c1C(=O)N1CCC(N2CCC[C@H]2CO)CC1 [Example 16, [4,6-Dimethyl-2-(3-trifluoromethyl-phenyl)-pyrimidin-5-yl]-[4-((S)-2-hydroxymethyl-pyrrolidin-1-yl)-piperidin-1-yl]-methanone] | 310
Cc1cc(-c2cccc(OC(F)(F)F)c2)nc(C)c1C(=O)N1CCC(N2CCC[C@H]2CO)CC1 [Example 29, [2,4-Dimethyl-6-(3-trifluoromethoxy-phenyl)-pyridin-3-yl]-[4-((S)-2-hydroxymethyl-pyrrolidin-1-yl)-piperidin-1-yl]-methanone] | 150
Cc1nc(-c2cccc(C(F)(F)F)c2)nc(C2CC2)c1C(=O)N1CCC(N2CCC[C@H]2CO)CC1 [Example 19, [4-Cyclopropyl-6-methyl-2-(3-trifluoromethyl-phenyl)-pyrimidin-5-yl]-[4-((S)-2-hydroxymethyl-pyrrolidin-1-yl)-piperidin-1-yl]-methanone] | 990
Cc1cc(-c2cccc(C(F)(F)F)c2)cc(C)c1C(=O)N1CCC(N2CCC(O)CC2)CC1 [Example 22, (3,5-Dimethyl-3′-trifluoromethyl-biphenyl-4-yl)-(4-hydroxy-[1,4′]bipiperidinyl-1′-yl)-methanone] | 55
O=C(c1c(F)cc(-c2cccc(OC(F)(F)F)c2)cc1F)N1CCC(N2CCCC2)CC1 [Example 40, (3,5-Difluoro-3′-trifluoromethoxy-biphenyl-4-yl)-(4-pyrrolidin-1-yl-piperidin-1-yl)-methanone] | 220
Cc1cc(-c2cccc(OC(F)(F)F)c2)ccc1C(=O)N1CCC(N2CCCC2)CC1 [Example 6, (3-Methyl-3′-trifluoromethoxy-biphenyl-4-yl)-(4-pyrrolidin-1-yl-piperidin-1-yl)-methanone] | 430
Cc1cc(-c2cccc(OC(F)(F)F)c2)nc(C)c1C(=O)N1CCC(N2CCCC2)CC1 [Example 28, [2,4-Dimethyl-6-(3-trifluoromethoxy-phenyl)-pyridin-3-yl]-(4-pyrrolidin-1-yl-piperidin-1-yl)-methanone] | 79
O=C(c1c(F)cc(-c2cccc(C(F)(F)F)c2)cc1F)N1CCC(N2CCCC2)CC1 [Example 39, (3,5-Difluoro-3′-trifluoromethyl-biphenyl-4-yl)-(4-pyrrolidin-1-yl-piperidin-1-yl)-methanone] | 89
Cc1cc(-c2cccc(OC(F)(F)F)c2)cc(C)c1C(=O)N1CCC(N2CCCC2)CC1 [Example 1, (3,5-Dimethyl-3′-trifluoromethoxy-biphenyl-4-yl)-(4-pyrrolidin-1-yl-piperidin-1-yl)-methanone] | 60
Cc1cc(-c2cncc(C(F)(F)F)c2)cc(C)c1C(=O)N1CCC(N2CCC[C@H]2CO)CC1 [Example 14, [2,6-Dimethyl-4-(5-trifluoromethyl-pyridin-3-yl)-phenyl]-[4-((S)-2-hydroxymethyl-pyrrolidin-1-yl)-piperidin-1-yl]-methanone] | 48
Cc1cc(-c2cccc(C(F)(F)F)c2)cc(C)c1C(=O)N1CCC(N2CCCC2)CC1 [Example 2, (3,5-Dimethyl-3′-trifluoromethyl-biphenyl-4-yl)-(4-pyrrolidin-1-yl-piperidin-1-yl)-methanone] | 21
Cc1nc(-c2cccc(C(F)(F)F)c2)nc(C2CC2)c1C(=O)N1CCC(N2CCCC2)CC1 [Example 18, [4-Cyclopropyl-6-methyl-2-(3-trifluoromethyl-phenyl)-pyrimidin-5-yl]-(4-pyrrolidin-1-yl-piperidin-1-yl)-methanone] | 490
Cc1nc(-c2cccc(C(F)(F)F)c2)nc(C)c1C(=O)N1CCC(N2CCCC2)CC1 [Example 13, [4,6-Dimethyl-2-(3-trifluoromethyl-phenyl)-pyrimidin-5-yl]-(4-pyrrolidin-1-yl-piperidin-1-yl)-methanone] | 190
Cc1cc(-c2cccc(C(F)(F)F)c2)ccc1C(=O)N1CCC(N2CCCC2)CC1 [Example 7, (3-Methyl-3′-trifluoromethyl-biphenyl-4-yl)-(4-pyrrolidin-1-yl-piperidin-1-yl)-methanone] | 150
Cc1cc(-c2cccc(C(F)(F)F)c2)cc(C)c1C(=O)N1CCC(N2CCC[C@H]2CO)CC1 [Example 9, (3,5-Dimethyl-3′-trifluoromethyl-biphenyl-4-yl)-[4-((S)-2-hydroxymethyl-pyrrolidin-1-yl)-piperidin-1-yl]-methanone] | 9
Cc1cc(-c2cccc(OC(F)(F)F)c2)cc(C)c1C(=O)N1CCC(N2CCC[C@H]2CO)CC1 [Example 10, (3,5-Dimethyl-3′-trifluoromethoxy-biphenyl-4-yl)-[4-((S)-2-hydroxymethyl-pyrrolidin-1-yl)-piperidin-1-yl]-methanone] | 39
Cc1cc(-c2cccc(C(F)(F)F)c2)nc(C)c1C(=O)N1CCC(N2CCC[C@H]2CO)CC1 [Example 30, [2,4-Dimethyl-6-(3-trifluoromethyl-phenyl)-pyridin-3-yl]-[4-((S)-2-hydroxymethyl-pyrrolidin-1-yl)-piperidin-1-yl]-methanone] | 67

Continued, values first:

IC50 [nM] | Structure (SMILES)
16 | Cc1cc(-c2cccc(C(F)(F)F)c2)cc(-c2cccnc2)c1C(=O)N1CCC(N2CCCC2)CC1 [Example 48, (5-Methyl-3-pyridin-3-yl-3′ trifluoromethyl-biphenyl-4-yl)-(4-pyrrolidin-1-yl-piperidin-1-yl)-methanone]
240 | Cc1cc(-c2cncc(C(F)(F)F)c2)nc(C)c1C(=O)N1CCC(N2CCCC2)CC1 [Example 42, (4,6-Dimethyl-5′-trifluoromethyl-[2,3′]bipyridinyl-5-yl)-(4-pyrrolidin-1-yl-piperidin-1-yl)-methanone]
82 | COc1nc(-c2cccc(C(F)(F)F)c2)cc(C)c1C(=O)N1CCC(N2CCCC2)CC1 [Example 50, [2-Methoxy-4-methyl-6-(3-trifluoromethyl-phenyl)-pyridin-3-yl]-(4-pyrrolidin-1-yl-piperidin-1-yl)-methanone]
17 | Cc1cc(-c2cccc(C(F)(F)F)c2)nc(O)c1C(=O)N1CCC(N2CCCC2)CC1 [Example 51, [2-Hydroxy-4-methyl-6-(3-trifluoromethyl-phenyl)-pyridin-3-yl]-(4-pyrrolidin-1-yl-piperidin-1-yl)-methanone; 4-Methyl-3-(4-pyrrolidin-1-yl-piperidine-1-carbonyl)-6-(3-trifluoromethyl-phenyl)-1H-pyridin-2-one (tautomers)]
76 | COc1cc(-c2cccc(C(F)(F)F)c2)cc(C)c1C(=O)N1CCC(N2CCCC2)CC1 [Example 44, (3-Methoxy-5-methyl-3′-trifluoromethyl-biphenyl-4-yl)-(4-pyrrolidin-1-yl-piperidin-1-yl)-methanone]
122 | O=C(c1ccc(-c2cccc(C(F)(F)F)c2)cc1Cl)N1CCC(N2CCCC2)CC1 [Example 46, (3-Chloro-3′-trifluoromethyl-biphenyl-4-yl)-(4-pyrrolidin-1-yl-piperidin-1-yl)-methanone]
480 | Cc1cc(-c2cncc(C(F)(F)F)c2)nc(C)c1C(=O)N1CCC(N2CCC[C@H]2CO)CC1 [Example 43, (4,6-Dimethyl-5′-trifluoromethyl-[2,3′]bipyridinyl-5-yl)-[4-((S)-2-hydroxymethyl-pyrrolidin-1-yl)-piperidin-1-yl]-methanone]
12 | Cc1cc(-c2cccc(C(F)(F)F)c2)cc(-c2cncnc2)c1C(=O)N1CCC(N2CCCC2)CC1 [Example 47, (5-Methyl-3-pyrimidin-5-yl-3′-trifluoromethyl-biphenyl-4-yl)-(4-pyrrolidin-1-yl-piperidin-1-yl)-methanone]
11 | Cc1cc(-c2cccc(C(F)(F)F)c2)nc(OCCO)c1C(=O)N1CCC(N2CCCC2)CC1 [Example 53, [2-(2-Hydroxy-ethoxy)-4-methyl-6-(3-trifluoromethyl-phenyl)-pyridin-3-yl]-(4-pyrrolidin-1-yl-piperidin-1-yl)-methanone]
48 | Cc1cc(-c2cccc(C(F)(F)F)c2)cc(O)c1C(=O)N1CCC(N2CCCC2)CC1 [Example 45, (3-Hydroxy-5-methyl-3′-trifluoromethyl-biphenyl-4-yl)-(4-pyrrolidin-1-yl-piperidin-1-yl)-methanone]
